From patent US4362743A, “Antibacterial monic acid esters” (Beecham Group Limited, priority 1980, dated 1982) come the findings set out here.

Converted amounts (≈) assume the structure as drawn. Read-outs that look alike come from different tables or passages of the source. Some results are limits rather than exact numbers.

One data set can be described thus: in vivo. The note with it: mouse, 50 mg/kg.
Data set [1] relates to Haemophilus influenzae Wy21. Description: Human bacteria MIC. The format is cell-based. Here is the method: The values were determined by serial dilutions in nutrient agar with 5% chocolated horse blood after incubations for 18 hours at 37° C.
Data set [2] can be described thus: Mean serum concentrations in neonatal piglets after intramuscular or oral administration. The format is in vivo. The conditions noted are these: pig, 50 mg/kg; for concentration at 40 min: 40° (printed). The procedure: Blood levels were assessed in neonatal piglets (2 to 4 animals per group and mean bodyweights about 2 kg). The dose was 50 mg/kg (dose solution=25 mg/ml in 25% ethanol). Doses were given by intramscular injection and orally by stomach tube. Piglets were beld at intervals up to 6 and at 24 hours, serum assayed microbiologically (B. subtilis ATCC 6633).

Setting [3] is: Haemophilus influenzae Wy21, nutrient agar, 5% chocolated horse blood, 18 hours 37° C., read-out: M.I.C.

As for `C/C(=C\C(=O)OC1CCC(=NO)CC1)C[C@@H]1OC[C@H](C[C@@H]2O[C@H]2[C@@H](C)[C@H](C)O)[C@@H](O)[C@H]1O` (some centres unmarked) [Example 3, 4-Hydroxyiminocyclohexyl monate A], in “in vivo” (po), the concentration at 5 min came out at 3500 ng/mL, the concentration at 10 min was found to be 3500 ng/mL, the concentration at 20 min was determined as 2200 ng/mL and the concentration at 0.5 h was found to be 1900 ng/mL. Further, in the data set “in vivo” (po), the concentration at 0.75 h was found to be 1600 ng/mL, the concentration at 1 h was determined as 800 ng/mL and the concentration at 1.5 h worked out at 600 ng/mL. Further, in the data set “in vivo” (sc), the concentration at 5 min turned out to be 20600 ng/mL, the concentration at 10 min turned out to be 23000 ng/mL, the concentration at 20 min came to 16600 ng/mL and the concentration at 0.5 h was 7900 ng/mL. In the data set “in vivo” (sc), the concentration at 0.75 h worked out at 2900 ng/mL, the concentration at 1 h came out at 1500 ng/mL and the concentration at 1.5 h was 300 ng/mL.

With `C/C(=C\C(=O)OCCCC(=NNC(N)=O)c1ccccc1)C[C@@H]1OC[C@H](C[C@@H]2O[C@H]2[C@@H](C)[C@H](C)O)[C@@H](O)[C@H]1O` [Example 2, 4-Phenyl-4-semicarbazonobutyl monate A], the MIC in data set [1] (setting [3]) was determined as 1 µg/mL (≈ 1.83 µM).

On to `C/C(=C\C(=O)OCc1ccc(C=NO)o1)C[C@@H]1OC[C@H](C[C@@H]2O[C@H]2[C@@H](C)[C@H](C)O)[C@@H](O)[C@H]1O` [Example 7, 5-Hydroxyiminomethylfurfuryl monate A], for which the MIC in data set [1] (setting [3]) was determined as 0.25 µg/mL (≈ 0.535 µM).

In data set [2] (im), `C/C(=C\C(=O)OCCCC(=NO)c1ccccc1)C[C@@H]1OC[C@H](C[C@@H]2O[C@H]2[C@@H](C)[C@H](C)O)[C@@H](O)[C@H]1O` [Example 1, 4-Hydroxyimino-4-phenylbutyl monate A] displayed a concentration at 40 min of 6300 ng/mL, a concentration at 10 min of 7000 ng/mL, a concentration at 20 min of 6700 ng/mL and a concentration at 1 h of 6600 ng/mL. The concentration at 2 h in data set [2] (im) amounted to 5200 ng/mL. For the same molecule, in data set [2] (im, 3h), the concentration at 3 h was 2900 ng/mL. The concentration at 4 h in data set [2] (im, 4h) was determined as 1700 ng/mL. This molecule also displayed a concentration at 6 h in data set [2] (im, 6h) below 900 ng/mL. In data set [2] (po), this molecule displayed a concentration at 40 min of 3300 ng/mL, a concentration at 10 min of 3000 ng/mL, a concentration at 20 min of 3000 ng/mL and a concentration at 1 h of 1200 ng/mL. Further, in data set [2] (po), the concentration at 2 h is below 1000 ng/mL. In the data set “in vivo” (po), this molecule yielded a concentration at 5 min of 1000 ng/mL, a concentration at 10 min of 790 ng/mL, a concentration at 20 min of 230 ng/mL and a concentration at 0.5 h below 200 ng/mL. Besides, in the data set “in vivo” (po), the concentration at 0.75 h is below 200 ng/mL, the concentration at 1 h is below 120 ng/mL and the concentration at 1.5 h was below 200 ng/mL. Further, in “in vivo” (sc), the concentration at 5 min amounted to 4400 ng/mL, the concentration at 10 min worked out at 6500 ng/mL, the concentration at 20 min stood at 3100 ng/mL and the concentration at 0.5 h turned out to be 1600 ng/mL. In “in vivo” (sc), this molecule yielded a concentration at 0.75 h of 460 ng/mL, a concentration at 1 h of 280 ng/mL and a concentration at 1.5 h below 200 ng/mL. Further, the MIC in data set [1] (setting [3]) was 0.5 µg/mL (≈ 0.989 µM).

In “in vivo” (po), `C/C(=C\C(=O)OCCCCCC=NN(C)C)C[C@@H]1OC[C@H](C[C@@H]2O[C@H]2[C@@H](C)[C@H](C)O)[C@@H](O)[C@H]1O` [Example 6, 6-Dimethylhydrazonohexyl monate A] displayed a concentration at 5 min of 3400 ng/mL, a concentration at 10 min of 3400 ng/mL, a concentration at 20 min of 680 ng/mL and a concentration at 0.5 h below 600 ng/mL. Besides, in the data set “in vivo” (po), the concentration at 0.75 h was below 600 ng/mL, the concentration at 1 h is below 600 ng/mL and the concentration at 1.5 h was below 600 ng/mL. Also, in the data set “in vivo” (sc), the concentration at 5 min came to 12100 ng/mL, the concentration at 10 min came out at 14800 ng/mL, the concentration at 20 min stood at 9700 ng/mL and the concentration at 0.5 h was determined as 6800 ng/mL. For the same molecule, in “in vivo” (sc), the concentration at 0.75 h stood at 3800 ng/mL, the concentration at 1 h turned out to be 2300 ng/mL and the concentration at 1.5 h is below 600 ng/mL. In data set [1] (Haemophilus influenzae, WY21, 18 h), the MIC was 0.5 µg/mL (≈ 1.03 µM).
